Measurements published in US12678440B2, “Compositions and methods for treating misfolded protein ocular disorders” (CASE WESTERN RESERVE UNIVERSITY, priority 2020, dated 2026).

How the values were obtained:
[1] = system: P23H rhodopsin; assay: Image-based (high-content imaging) assay in NIH3T3 (RHO^P23H/GFP) cells; assay type: cell-based; details: for EC50 / Efficacy, Image-based assay NIH3T3 (RHO^P23H/GFP): 24 h; for EC50: 8-10 doses, rhodopsin immunostaining; for Efficacy, Image-based assay NIH3T3 (RHO^P23H/GFP): DMSO 0%, secondary antibody only −100%
Excerpt: Two NIH3T3 stable cell lines, NIH3T3 (RHO^WT/GFP) and NIH3T3 (RHO^P23H/GFP) were shared by Dr. Krzysztof Palczewski's lab who generated them by incorporating the […] DNA constructs to the NIH3T3 cells, respectively, via viral transduction (24, 33). GFP was co-expressed with rhodopsin for positive-clone selection. The expression of the WT and P23H rhodopsin protein was confirmed by immunoblots and immunostaining.
To assess the effect of active compounds on the clearance of P23H rhodopsin in mammalian cells, an image-based assay was performed using NIH3T3 (RHO^WT/GFP) and NIH3T3 (RHO^P23H/GFP) cells, as described previously. Briefly, cells were seeded at 5000 cells per well in 384-well plates and incubated at 37° C. in 5% CO2 for 4 hours until cells were attached to the bottom of the plate. Attached cells were treated with compounds for 24 hours. The assay medium was aspirated, and cells were fixed with 4% paraformaldehyde at 20 μL per well for 20 min at room temperature. Cell membranes were permeabilized with PBS containing 0.1% Triton X-100 (PBST) and then incubated with 50 µg/mL 1D4 anti-rhodopsin antibody at 15 μL/well for 1 hour at room temperature. After three washes with 50 μl/well of PBST, cells were incubated with 15 μL/well Cy3-conjugated goat anti-mouse IgG antibody for 1 hour at room temperature. After three washes with 50 μl/well of PBST, cells were incubated in 50 μl/well of PBS containing 2 μg/mL Hoechst 33342 to stain the nuclei. Finally, the immunostained cells were imaged by an ImageExpress High Content Imaging System (MolecularDevices). Immunofluorescence of rhodopsin was measured by MetaXpress software using the mean of total fluorescence of Cy3 channel per cell per well taken from five fields containing 600-1000 intact cells per well. After normalizing the fluorescence intensities of rhodopsin to the DMSO treated cells as 0% and cells immunostained with secondary antibody only as −100%, dose-response curves for each compound were plotted and fitted by a modified Hill function using the Origin software. The high-content imaging experiments for hit validation were performed at the CWRU drug discovery facility, and the high-content imaging analyses for the MTX co-treatment with BafA1 and MG-132 were undertaken at the University of Pittsburgh Drug Discovery Institute.

[2] = system: WT mouse rhodopsin fused with Renilla luciferase (Rluc); assay: Rluc reporter counter screen in Hek293 (RHO^WT-Rluc) cells; assay type: cell-based; details: for Efficacy, Rluc assay Hek293 (RHO^WT − Rluc): 24 h, DMSO 0%, Evans Blue −100% controls; for EC50: 24 h compound treatment, dose-response, triplicate
Excerpt: Two Hek293 stable cell lines, Hek293 (RHO^WT-Rluc) and Hek293 (RHO^P23H-Rluc) cells were generated which stably express the WT and P23H mutant mouse rhodopsin each fused with a Renilla luciferase (Rluc) for the luciferase reporter assay as previously described. Briefly, the Hek 293 cells (ATCC, Manassas, VA, USA) were transfected with the pcDNA3.1 Zeo containing the cDNA of mouse WT or P23H rhodopsin fused with a Rluc 8 (a gift from Dr. Navine Lambert at Augusta University, Augusta, GA USA) and transfected cells were incubated in Dulbecco's modified Eagle's medium (DMEM, Genesee Scientific, E1 Cajon, CA USA) with 10% fetal bovine serum (FBS, Gibco Laboratories, Gaithersburg, MD USA) for 48 h before addition of 400 μg/mL of Zeocin (InvivoGen, San Diego, CA USA) for positive clone selection. Colonies of cells survived from 1 week of Zeocin selection were collected, and expression of WT and P23H rhodopsin were confirmed by a luciferase assay and immunoblotting of rhodopsin with positive bands of monomers at about 70 kD (FIG. 8). The difference of molecular masses between WT and P23H rhodopsin proteins was due to differences in glycosylation, which was also seen in the NIH3T3 cells expressing the WT and P23H rhodopsin proteins.
The HTS was performed at three facilities, including University of Cincinnati (UC), Case Western Reserve University, and National Center for Advancing Translational Sciences (NCATS), testing a total of six compound collections. These compound collections include: 1) the UC 10K Diversity Set (10,011 compounds), 2) the Life Chemicals 50K Collection (50,560), 3) the Spectrum Collection (2,400 compounds), 4) the LOPAC collection (1,280 compounds), 5) the FDA collection (2,816 compounds), and 6) the NCATS MIPE collection (1,912 compounds). […] For the compound collections 1), 2) and 3), we firstly tested each compound using the P23H rhodopsin luciferase reporter assay at a single dose for once (9.93 to 16.13 μM) in 384-well format, and we identified 2072 compounds with activity scores lower than the cutoff at mean-2SD. Activity scores were normalized using DMSO treated cells as 0% control and the 1 mM Evans Blue treated cells as −100% control. From these hit compounds, we excluded those reported with luciferase inhibitor activities and cherry-picked the rest for hit confirmation. Each hit was tested at 10 μM in the Hek293 (RHO^P23H-Rluc) cells again by the luciferase reporter assay in triplicates, and the confirmed hits with activity scores lower than-50% were then counter screened for their effects on Rluc activity by the recombinant Rluc activity assay, and on WT rhodopsin level by the luciferase reporter assay in the Hek293 (RHO^WT-Rluc) cells at 10 μM in triplicates, respectively. […] Next, we tested the dose responses of these confirmed hits in both the Hek293 (RHO^P23H-Rluc) and the Hek293 (RHO^WT-Rluc) cells and identified compounds that selectively favored the clearance of P23H than WT rhodopsin in a dose-dependent manner (Table 4). For the compound collections 4)-6), we tested each compound directly at 7 or 11 doses using the luciferase reporter assay in the Hek293 (RHO^P23H-Rluc) cells in 1536-well format, and identified 128 compounds with efficacy smaller than-50% and EC50<20 μM.
The Rluc reporter assay has been described before. HTS was undertaken in 384-well format for the UC 10K Diversity Set, Spectrum Collection and the Life Chemicals 50K diversity set, and in 1536-well format for the FDA, LOPAC, and MIPE collections. Using the 384-well format as an example, Hek (RHO^P23H-Rluc) cells were seeded in 384-well white-wall clear-bottom plates (assay plates) at 3×10^5/mL for 40 μL/well by an 8-channel Multiflo liquid dispenser (Bioteck, Winooski, VT USA). The assay plates were centrifuged at 300×g for 30 s and cultured at 37° C. with 5% CO2 overnight. […]

| SMILES | EC50 [1] [nM] | Efficacy, Image-based assay NIH3T3 (RHO^P23H/GFP) [1] [%] | Efficacy, Rluc assay Hek293 (RHO^WT − Rluc) [2] [%] | EC50 [2] [nM] | EC50 ([1]; listed as MTX) [nM] | mean intensity of P23H rhodopsin immunostaining per cell ([1]; MTX alone, dose series) | MTX dose-dependent reduction of P23H rhodopsin immunostaining, co-treatment with BafA1 ([1]; co-treatment 100 nM BafA1) | MTX dose-dependent reduction of P23H rhodopsin immunostaining, addition of MG-132 ([1]; co-treatment 5 μM MG-132) |
| --- | --- | --- | --- | --- | --- | --- | --- | --- |
| CCn1cnc2c(N)ncnc21 [CL-007] | 2900 | −72.7 | −51.7 | 11000 | – | – | – | – |
| NCC(=O)COP(=O)(O)O [CL-005] | 1300 | −72.7 | −57.9 | 4200 | – | – | – | – |
| O=C(NC1CCNCC1)c1n[nH]cc1NC(=O)c1c(Cl)cccc1Cl [CL-006] | 2200 | −76.4 | −42.9 | 1520 | – | – | – | – |
| O=C(O)C1=CC=CC(O)C1O (centres unmarked) [CL-003] | 600 | −46.1 | −37.7 | 1500 | – | – | – | – |
| CN(Cc1cnc2nc(N)nc(N)c2n1)c1ccc(C(=O)N[C@@H](CCC(=O)O)C(=O)O)cc1 [CL-009, N-[4-[[(2,4-diamino-6-pteridinyl)methyl]methylamino]benzoyl]-L-glutamic acid] | 3300 | −36.0 | – | – | ~3300 | reduced in an MTX dose-dependent manner | entirely abolished | not affected |
| CC(O)CN (centres unmarked) [CL-004] | 470 | −70.7 | −45.5 | 920 | – | – | – | – |
| CC(=O)OC(CC(=O)O)C[N+](C)(C)C (centres unmarked) [CL-002] | 1600 | −61.0 | −62.0 | 3400 | – | – | – | – |
| CC(=O)OC(CC(=O)[O-])C[N+](C)(C)C (centres unmarked) [CL-001] | 2100 | −83.6 | −44.3 | 1000 | – | – | – | – |
| CCC(C)(O)C(O)C(=O)O (centres unmarked) [CL-008] | 1600 | −70.1 | −52.7 | 590 | – | – | – | – |
